{"source": "patent US4201843A", "about": "“Process for manufacturing tylosin derivatives” (Sanraku Ocean Co., Ltd., priority 1975, dated 1980)", "key": {"[1]": {"test_system": "drug resistant strains", "experiment": "antimicrobial activity against drug resistant strains", "format": "cell-based", "conditions": "strains marked * in Table 2", "description": "One of the particular advantages of the said tylosin derivatives over known macrolide antibiotics is their distinct antimicrobial activity against drug resistant bacteria.\n(§1) The strains marked * in Table 2 are the drug resistant strains isolated from patients, namely, Staphilococcus aureus MS-9610 which is resistant to penicillin, tetracycline, erythromycin, leucomycin, spiramycin, josamycin and tylosin, Staphilococcus aureus MS-8710 which is resistant to penicillin, tetracycline, erythromycin, leucomycin and tylosin, and Streptococcus pyogenes MH 771 which is resistant to erythromycin, oleandomycin, leucomycin and tylosin."}, "[2]": {"test_system": "Streptococcus pyogenes MH 771", "experiment": "minimum growth-inhibitory concentration", "format": "cell-based", "conditions": "MH771, read-out: minimum growth-inhibitory concentration (MIC)", "procedure": "(§2) The antimicrobial spectra of new tylosin derivatives of this invention are shown in Table 2 by listing the minimum growth inhibitory concentrations (MIC, mcg/ml). […] The toxicity of these compounds was tested in animals by intravenous administration, and the LD50 values in mice are more than 400 mg/kg with all compounds. In therapeutical experiments with mice manually infected by Staphilococcus aureus SMITH, the ED50 values were less than 50 mg/kg (p.o.) with all said tylosin derivatives.\n(broth-dilution method)\nas §1"}, "[3]": {"experiment": "solubility in solvents", "format": "physicochemical", "description": "(§3) The physicochemical analysis and deterimations included elementary analysis, melting point, specific rotatory power, ultraviolet spectrum, infrared spectrum, magnetic nuclear resonance (NMR), C^13 -NMR, mass spectrum (chemical ionization), the release of organic acids under alkaline conditions (gas chromatographical detection), solubility in solvents, color development reaction, basicity of the compounds, appearance and crystalline form. The molecular weight was obtained as QM^+ (Quasi Molecular ion) by chemically-ionized mass spectra analysis.\n(§4) (2) the crystals obtained from the solvents in (13) were used for the tests in (1)-(12), and […]"}, "[4]": {"experiment": "basicity of the compounds (alkalinity)", "format": "physicochemical", "description": "as §3, §4"}, "[5]": {"test_system": "Staphylococcus aureus SMITH", "experiment": "minimum growth-inhibitory concentration", "format": "cell-based", "procedure": "as §2"}, "[6]": {"test_system": "Mycobacterium smegmatis ATCC 607", "experiment": "minimum growth-inhibitory concentration", "format": "cell-based", "conditions": "Mycolicibacterium smegmatis, ATCC607", "procedure": "as §2"}, "[7]": {"test_system": "Bacillus subtilis ATCC 6633", "experiment": "minimum growth-inhibitory concentration", "format": "cell-based", "conditions": "ATCC6633", "procedure": "as §2"}, "[8]": {"test_system": "Pseudomonas fluorescens NIHJB 254", "experiment": "minimum growth-inhibitory concentration", "format": "cell-based", "conditions": "NIHJB254", "procedure": "as §2"}, "[9]": {"test_system": "Escherichia coli (National Institute of Health)", "experiment": "minimum growth-inhibitory concentration", "format": "cell-based", "procedure": "as §2"}, "[10]": {"test_system": "Candida tropicalis IAM 4924", "experiment": "minimum growth-inhibitory concentration", "format": "cell-based", "conditions": "IAM4924", "procedure": "as §2"}, "[11]": {"test_system": "Bacillus cereus ATCC 9634", "experiment": "minimum growth-inhibitory concentration", "format": "cell-based", "conditions": "ATCC9634", "procedure": "as §2"}, "[12]": {"test_system": "Candida albicans IAM 4905", "experiment": "minimum growth-inhibitory concentration", "format": "cell-based", "conditions": "IAM4905", "procedure": "as §2"}, "[13]": {"test_system": "Corynebacterium bovis 1810", "experiment": "minimum growth-inhibitory concentration", "format": "cell-based", "procedure": "as §2"}, "[14]": {"test_system": "Micrococcus flavus I", "experiment": "minimum growth-inhibitory concentration", "format": "cell-based", "procedure": "as §2"}, "[15]": {"test_system": "Sarcina lutea ATCC 9341", "experiment": "minimum growth-inhibitory concentration", "format": "cell-based", "conditions": "Micrococcus luteus, ATCC9341", "procedure": "as §2"}, "[16]": {"test_system": "Bacillus megaterium NRRL B-938", "experiment": "minimum growth-inhibitory concentration", "format": "cell-based", "conditions": "Priestia megaterium, NRRLB938", "procedure": "as §2"}, "[17]": {"test_system": "Proteus morganii (The Institute for Infectious Diseases)", "experiment": "minimum growth-inhibitory concentration", "format": "cell-based", "conditions": "Morganella morganii", "procedure": "as §2"}, "[18]": {"test_system": "Staphylococcus aureus FAD209P", "experiment": "minimum growth-inhibitory concentration", "format": "cell-based", "conditions": "read-out: minimum growth-inhibitory concentration (MIC)", "procedure": "as §2"}, "[19]": {"test_system": "Staphylococcus aureus MS 8710", "experiment": "minimum growth-inhibitory concentration", "format": "cell-based", "conditions": "MS8710; Staphylococcus aureus MS 8710, drug resistant strain", "procedure": "as §2, §1"}, "[20]": {"test_system": "Staphylococcus aureus MS 9610", "experiment": "minimum growth-inhibitory concentration", "format": "cell-based", "conditions": "MS9610; Staphylococcus aureus MS 9610, drug resistant strain", "procedure": "as §2, §1"}, "[21]": {"set-up": "species or system mice", "conditions": "mouse, in vivo, po, 100 mg/kg", "procedure": "Another phase of advantages of the said tylosin derivatives is their high blood levels in animals. When each of these compounds is orally administered to mice in a dose of 100 mg/kg, their concentrations in blood were measured to be 5-20 mcg/ml, a substantially high value compared to that of tylosin (<1 mcg/ml). […] Their concentrations in blood one hour after administration reached up to 15-20 mcg/ml."}, "[22]": {"conditions": "electrometric determination in dimethyl formamide-H2O=2:1 by volume; Japanese Patent (Kokoku) Showa No. 36-22649; cited from earlier work"}}}
{"molecule": "CCCC(=O)OC1C(C)OC(OC2C(C)OC(OC3C(CC=O)CC(C)C(=O)/C=C/C(C)=C/C(COC4OC(C)C(O)C(OC)C4OC)C(CC)OC(=O)CC(O)C3C)C(O)C2N(C)C)CC1(C)O", "note": "(stereo not shown) [4\"-n-butyryltylosin]", "values": [{"measurement": "antimicrobial activity against a wide range of drug resistant strains", "setting": "[1]", "value": "particularly strong antimicrobial activity"}, {"measurement": "MIC", "setting": "[2]", "value": 15.6, "unit": "µg/mL"}, {"measurement": "solubility in acidic water", "setting": "[3]; acidic water", "value": "soluble"}, {"measurement": "solubility in alkaline water", "setting": "[3]; alkaline water", "value": "hardly soluble"}, {"measurement": "solubility in lower alcohols, ketones, ethers, esters, benzene and toluene", "setting": "[3]; e.g. ethanol, acetone, ethyl ether, ethyl acetate, benzene, toluene", "value": "soluble"}, {"measurement": "solubility in n-hexane and petroleum ether", "setting": "[3]; n-hexane and petroleum ether", "value": "hardly soluble"}, {"measurement": "solubility in neutral water", "setting": "[3]; neutral water", "value": "slightly soluble"}, {"measurement": "alkalinity", "setting": "[4]", "value": "alkaline compounds"}, {"measurement": "MIC", "setting": "[5]", "value": 0.25, "unit": "µg/mL"}, {"measurement": "MIC", "setting": "[6]", "value": 3.91, "unit": "µg/mL"}, {"measurement": "MIC", "setting": "[7]", "value": 0.49, "unit": "µg/mL"}, {"measurement": "MIC", "setting": "[8]", "value": "> 250", "unit": "µg/mL"}, {"measurement": "MIC", "setting": "[9]", "value": 125, "unit": "µg/mL"}, {"measurement": "MIC", "setting": "[10]", "value": "> 250", "unit": "µg/mL"}, {"measurement": "MIC", "setting": "[11]", "value": 0.98, "unit": "µg/mL"}, {"measurement": "MIC", "setting": "[12]", "value": "> 250", "unit": "µg/mL"}, {"measurement": "MIC", "setting": "[13]", "value": 0.98, "unit": "µg/mL"}, {"measurement": "MIC", "setting": "[14]", "value": 0.49, "unit": "µg/mL"}, {"measurement": "MIC", "setting": "[15]", "value": 0.25, "unit": "µg/mL"}, {"measurement": "MIC", "setting": "[16]", "value": 0.49, "unit": "µg/mL"}, {"measurement": "MIC", "setting": "[17]", "value": "> 250", "unit": "µg/mL"}, {"measurement": "MIC", "setting": "[18]", "value": 0.25, "unit": "µg/mL"}, {"measurement": "MIC", "setting": "[19]", "value": 62.5, "unit": "µg/mL"}, {"measurement": "MIC", "setting": "[20]", "value": "> 250", "unit": "µg/mL"}]}
{"molecule": "CC[C@H]1OC(=O)C[C@@H](O)[C@H](C)[C@@H](O[C@@H]2O[C@H](C)[C@@H](O[C@H]3C[C@@](C)(O)[C@@H](O)[C@H](C)O3)[C@H](N(C)C)[C@H]2O)[C@@H](CC=O)C[C@@H](C)C(=O)/C=C/C(C)=C/[C@@H]1CO[C@@H]1O[C@H](C)[C@@H](O)[C@@H](OC)[C@H]1OC", "note": "[tylosin]", "values": [{"measurement": "MIC", "setting": "[2]", "value": 250, "unit": "µg/mL"}, {"measurement": "concentration in blood", "setting": "[21]", "value": "< 1000", "unit": "ng/mL"}, {"measurement": "MIC", "setting": "[5]", "value": 0.25, "unit": "µg/mL"}, {"measurement": "MIC", "setting": "[6]", "value": 7.81, "unit": "µg/mL"}, {"measurement": "MIC", "setting": "[7]", "value": 0.49, "unit": "µg/mL"}, {"measurement": "MIC", "setting": "[8]", "value": "> 250", "unit": "µg/mL"}, {"measurement": "MIC", "setting": "[9]", "value": 250, "unit": "µg/mL"}, {"measurement": "MIC", "setting": "[10]", "value": "> 250", "unit": "µg/mL"}, {"measurement": "MIC", "setting": "[11]", "value": 0.49, "unit": "µg/mL"}, {"measurement": "MIC", "setting": "[12]", "value": "> 250", "unit": "µg/mL"}, {"measurement": "MIC", "setting": "[13]", "value": 0.5, "unit": "µg/mL"}, {"measurement": "MIC", "setting": "[14]", "value": 0.12, "unit": "µg/mL"}, {"measurement": "MIC", "setting": "[15]", "value": 0.12, "unit": "µg/mL"}, {"measurement": "MIC", "setting": "[16]", "value": 0.25, "unit": "µg/mL"}, {"measurement": "MIC", "setting": "[17]", "value": "> 250", "unit": "µg/mL"}, {"measurement": "MIC", "setting": "[18]", "value": 0.49, "unit": "µg/mL"}, {"measurement": "MIC", "setting": "[19]", "value": "> 250", "unit": "µg/mL"}, {"measurement": "MIC", "setting": "[20]", "value": "> 250", "unit": "µg/mL"}]}
{"molecule": "tylosin acetyl ester", "values": [{"measurement": "pk value", "setting": "[22]", "value": "about 5.1"}]}
